“And” between values parts separate entries of the source, which are not always exact repeats. Equal entries are not always repeated. Ends that are not written are not given here.
Columns and labels:
Male Wistar rats = assay type: in vivo, rat
Experimental: (§1) All experimental protocols were approved by the Institutional Animal Ethics Committee. Male Wistar rats were injected with dexamethasone (3.1 mg/kg/day, intraperitoneally) for 7 days. The daily weights of rats in both control and dexamethasone-treated groups were monitored. […] Rats were fasted for 18 h prior to each experiment and were killed by cervical dislocation. Blood was obtained by cardiac puncture from anesthetized animals. The mean blood glucose concentration was 5.4±0.2 mM and 10.8±0.6 mM in control and dexamethasone-treated rats, respectively, as measured with a YSI 2300STAT glucose/lactate analyser (Yellow Springs Instruments). […] Insulin and amylin concentrations in the blood of normal and insulin resistant rats were determined as described (17). Rats with insulin resistance induced by chronic high fat feeding were generated as described previously (26).

skeletal muscle = assay: In vitro [14C(U)]-D-glucose incorporation assay in skeletal muscle (insulin-stimulated glycogen synthesis); assay type: cell-based, rat; conditions: muscle of dexamethasone-treated rats
Experimental: as §1

P20 [1] = assay: Phosphorylation of P20 isoforms in 32P-labelled rat EDL muscle strips (2-DE, phosphorimaging); assay type: cell-based; conditions: for radioactivity of P20 isoform S1 / radioactivity of P20 isoform S2 / radioactivity of P20 isoform S3: hormones 50 nM, 30 min, n=4
Experimental: Rat extensor digitorum longus (EDL) muscle strips were prepared from 18 h-fasted rats. Dissection and isolation of muscles were carried out under anaesthesia with pentobarbital (5-7 mg/100 g of body weight, intraperitoneally) as described previously (23). Each muscle was split into three ˜1 mm width strips. Muscle strips were pre-incubated in a shaking incubator at 30° C. for 1 h in 5 ml of Dulbecco's Modified Eagle's medium without sodium phosphate. All incubation media were gassed with a mixture of 95% O2 and 5% CO2. The muscle strips were subsequently transferred to similar flasks containing identical medium plus 0.25 mCi/ml [^32P]-orthophosphate and incubated for a further 4 h to equilibrate the internal ATP pool (23, 24). Human insulin, rat amylin, epinephrine or CGRP were then added to the incubation media for 30 min at stated final concentrations. Reactions were terminated by freezing muscle strips in liquid nitrogen immediately after incubation. Muscle strips were then weighed and stored at −80° C. until further analysis.
Muscle strips were homogenized in 2-DE lysis buffer (9M urea, 2% v/v triton X-100, 2% v/v pharmalyte pH 3-10, 200 mM DTT, 8 mM PMSF) for 5 min on ice. The lysates were briefly sonicated and microcentrifuged at 12,000 rpm for 10 min to remove debris. Protein concentrations were determined by the Bradford method and radioactivity was measured by liquid scintillation counting. ^32P-labelled lysates with equivalent amounts of radioactivity were isoelectrically focused on IPG Drystrip pH 4-7 and pH 3-10 Linear gels using a multiphor RII electrophoresis system according to the manufacturer's instructions. Second dimensional SDS-PAGE was carried out using ExcelGel™ precast 12-14% acrylamide gradient gels. After electrophoresis the gels were fixed in 10% glacial acetic acid, 40% ethanol and the proteins visualized by phosphorimaging or autoradiography.
Autoradiography films were scanned and digitised using a Sharp JX-325 scanner, and protein spots detected, quantitated and analysed using the Melanie II software package, ver. 2.2 (Biorad). The detection parameters were: smooth 2, Laplacian threshold 3, partials threshold 1, saturation 90, peakedness increase 100 and minimum perimeter 10. The matching of multiple features to one feature was not allowed. The pixel value is the optical density (OD). Features were calculated as a percentage of the sum of VOL (the feature's volume, i.e., the integration of OD over the feature's area) for all features on the gel. The radioactivity of protein spots was also detected by a phosphorimager and analysed by MacBAS v2.5 software. […] All the results presented are based on at least three independent experiments. Statistical analysis was performed using the t-test (paired two sample).

L6 myotubes = assay: 2-deoxyglucose uptake in L6 myotubes; assay type: cell-based
Experimental: L6 myoblast cells were transfected with pCXN2-GLUT4myc (27), or co-transfected with pCXN2-GLUT4myc and pcDNA.P20, using Lipofectamine Plus reagent according to the manufacturer's instructions. Stable transfectants were selected in medium containing the neomycin analogue G418 at 400 μg/ml. At 10 days after transfection, the clones were selected using sterilised steel rings and expanded separately in the presence of G418. Clones that express P20 and myc-tagged GLUT4 were chosen by western blotting and used for further experiments.
L6 cells stably overexpressing myc-tagged GLUT4, or myc-tagged GLUT4 plus P20, were grown in 6-well plates and differentiated into myotubes in DMEM containing 2% fetal bovine serum for 7 days. The cells were deprived of serum for 16 h prior to experiments. For glucose uptake assays, L6 myotubes were rinsed three times with Krebs-Henseleit buffer (KHB) and incubated in KHB with or without hormones (insulin or insulin plus amylin) at the indicated concentrations for 15 min at 37° C. Carrier-mediated glucose uptake of 10 μM 2-deoxy-D-[^3H] glucose in the above solution was measured for 15 min at 37° C. This was followed by rinsing the cells three times with ice-cold PBS and cell disruption with 0.1 N NaOH. The associated radioactivity was determined by liquid scintillation counting. The protein concentration was measured with a BCA protein quantitation kit (PIERCE). The nonspecific uptake was determined in the presence of 10 μM cytochalasin B and subtracted from each value.

P20 [2] = assay: P20 mRNA (northern blot) and protein (western blot) in EDL muscle; assay type: cell-based, rat; conditions: dexamethasone-injected rats or strips with 50 nM amylin 30 min
Experimental: About 50 μg proteins from liver, heart, epididymal fat pad, aortic smooth muscle, EDL muscle, soleus muscle tissues and whole blood obtained from 18 h-fasted male Wistar rats were separated by SDS-PAGE and subsequently transferred to nitrocellulose membranes. The membranes were blocked over night at 4° C. and then incubated with rabbit anti-P20 polyclonal antibody (1:1000) for 2 h at room temperature. After incubation with streptavidin-biotinylated horseradish peroxidase-conjugated secondary antibody for another 1 h at room temperature, the proteins immunoreactive to the primary antibody were visualised by enhanced chemiluminescence (ECL) detection according to the manufacturer's instructions.
Total cellular RNA was isolated from EDL muscle of 18 h-fasted control and dexamethasone-treated rats using TRIZOL reagent. 15 μg of RNA from each sample was separated by 1.5% agarose-formaldehyde gel electrophoresis and subsequently transferred to Hybond-N^+ nylon membranes by capillary blotting in 20×SSC. The P20 cDNA probe was labelled with ^32P-dCTP using a random primer labelling system. […] Membranes were then washed, analysed using a phosphorimager and quantitated by MacBAS v2.5 software. For comparison, RNA samples from EDL muscle strips treated with or without 50 nM amylin were also analysed in parallel.

[3] = EDL strips from dexamethasone-treated rats, basal = no hormone
[4] = cells overexpressing both P20 and GLUT4myc vs GLUT4myc alone, n=4
[5] = EDL strips from non-diabetic control rats, mean ± SD

C[C@@H]1C[C@H]2[C@@H]3CCC4=CC(=O)C=C[C@]4(C)[C@@]3(F)[C@@H](O)C[C@]2(C)[C@@]1(O)C(=O)CO [Dexamethasone, dexamethasone]
mean blood glucose concentration (Male Wistar rats; 3.1 mg/kg/day i.p. for 7 days, 18 h fasted): 10.8 ± 0.6 mM | fasted basal plasma concentration of amylin (Male Wistar rats; dexamethasone-treated rats): 144±17 pmol/1 | fasted basal plasma concentration of insulin (Male Wistar rats; dexamethasone-treated rats): 789±94 pmol/1 | reduction in rates of insulin-stimulated glycogen synthesis (skeletal muscle): over 95% | radioactivity of P20 isoform S1 (P20 [1]; [3]): 439 PSL | radioactivity of P20 isoform S2 (P20 [1]; [3]): 102 PSL | radioactivity of P20 isoform S3 (P20 [1]; [3]): 98.6 PSL | signals of both S2 and S3, fold higher than control rats (P20 [1]; without hormone stimulation, dexamethasone 3.1 mg/kg/day i.p. for 7 days): about 5 fold

Amylin: Rat amylin purchased from Bachem; hormone co-secreted with insulin from pancreatic islet β-cells (KCNTATCATQRLANFLVRSSNNLGPVLPPTNVGSNTY; ends and bridges not checked; cysteine pairing not given here; UniProt P12969 38-74, looked up)
decrease of insulin-stimulated glucose uptake (L6 myotubes; GLUT4myc alone, 50 nM insulin plus 50 nM amylin): 28% | increase of the inhibitory effect of amylin by P20 overexpression (L6 myotubes; [4]): 24±2% | decrease of insulin-induced phosphorylation of S1 (P20 [1]; 50 nM insulin plus 50 nM amylin vs 50 nM insulin alone, normal rats): 49% | radioactivity of P20 isoform S1 (P20 [1]; [3]): 181 PSL | radioactivity of P20 isoform S2 (P20 [1]; [3]): 280 PSL | radioactivity of P20 isoform S3 (P20 [1]; [3]): 208 PSL | radioactivity of P20 isoform S1 (P20 [1]; [5]): 191 ± 9 PSL | radioactivity of P20 isoform S2 (P20 [1]; [5]): 289 ± 20 PSL | radioactivity of P20 isoform S3 (P20 [1]; [5]): 226 ± 17 PSL | P20 mRNA level and protein abundance (P20 [2]): not changed

Insulin: Human insulin was Actrapid from Novo Nordisk
decrease of insulin-stimulated glucose uptake by P20 overexpression (L6 myotubes; [4]): 41±3% | increase of 2-deoxyglucose uptake over basal level (L6 myotubes; myotubes overexpressing GLUT4myc alone, 50 nM insulin): 2.94±0.31 fold | effect on phosphorylation of S2 and S3 induced by epinephrine and CGRP (P20 [1]; 50 nM each, normal rats): no effect | decrease of amylin-evoked phosphorylation of S3 (P20 [1]; 50 nM insulin plus 50 nM amylin vs amylin alone, normal rats): 73% and ~74% | radioactivity of P20 isoform S1 (P20 [1]; [3]): 843 PSL | radioactivity of P20 isoform S2 (P20 [1]; [3]): 96.6 PSL | radioactivity of P20 isoform S3 (P20 [1]; [3]): 92 PSL | radioactivity of P20 isoform S1 (P20 [1]; [5]): 831 ± 40 PSL | radioactivity of P20 isoform S2 (P20 [1]; [5]): 20.3 ± 3.4 PSL | radioactivity of P20 isoform S3 (P20 [1]; [5]): 13.3 ± 1.3 PSL | effect on amylin-evoked phosphorylation of S2 and S3 (P20 [1]; diabetic (dexamethasone-treated) rats): little affected

Source: US6884575B2, “Phosphoprotein target for insulin and its antagonists” (Protemix Corporation Limited, priority 2001, dated 2005)
